# Assay results published in paper PMC6508495, “Members of the abscisic acid co‐receptor PP2C protein family mediate salicylic acid–abscisic acid crosstalk” (Plant Direct, 2017).
# Columns and labels:
# [1] = biological target: T1, ABI2 (Arabidopsis thaliana, UniProt O04719); assay: photoaffinity crosslinking, anti-SA immunoblot; format: binding; conditions: 50 uM 4AzSA; 50 ng protein; photo-activated, covalent; competed by SA
# T1 construct: ORF from Arabidopsis cDNA library in pET28a, His6-tagged, E. coli Rosetta 2 (DE3), Ni-NTA and gel filtration
# T1 sequence (O04719 1-423): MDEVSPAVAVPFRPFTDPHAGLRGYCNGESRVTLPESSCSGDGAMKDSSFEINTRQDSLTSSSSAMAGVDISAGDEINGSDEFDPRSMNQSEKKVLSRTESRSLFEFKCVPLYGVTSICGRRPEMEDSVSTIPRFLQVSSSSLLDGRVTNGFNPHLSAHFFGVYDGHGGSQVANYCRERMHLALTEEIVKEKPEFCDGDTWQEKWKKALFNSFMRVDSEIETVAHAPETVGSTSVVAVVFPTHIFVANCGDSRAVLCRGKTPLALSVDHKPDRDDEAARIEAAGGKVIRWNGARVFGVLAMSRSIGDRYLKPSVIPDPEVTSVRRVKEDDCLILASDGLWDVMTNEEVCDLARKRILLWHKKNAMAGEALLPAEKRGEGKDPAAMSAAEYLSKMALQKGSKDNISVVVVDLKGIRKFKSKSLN
# [2] = biological target: T2, ABI1 (Arabidopsis thaliana, UniProt P49597); assay: photoaffinity crosslinking, anti-SA immunoblot; format: binding; conditions: 50 uM 4AzSA; 50 ng protein; photo-activated, covalent; competed by SA
# T2 construct: ORF from Arabidopsis cDNA library in pET28a, His6-tagged, E. coli Rosetta 2 (DE3), Ni-NTA and gel filtration
# T2 sequence (P49597 1-434): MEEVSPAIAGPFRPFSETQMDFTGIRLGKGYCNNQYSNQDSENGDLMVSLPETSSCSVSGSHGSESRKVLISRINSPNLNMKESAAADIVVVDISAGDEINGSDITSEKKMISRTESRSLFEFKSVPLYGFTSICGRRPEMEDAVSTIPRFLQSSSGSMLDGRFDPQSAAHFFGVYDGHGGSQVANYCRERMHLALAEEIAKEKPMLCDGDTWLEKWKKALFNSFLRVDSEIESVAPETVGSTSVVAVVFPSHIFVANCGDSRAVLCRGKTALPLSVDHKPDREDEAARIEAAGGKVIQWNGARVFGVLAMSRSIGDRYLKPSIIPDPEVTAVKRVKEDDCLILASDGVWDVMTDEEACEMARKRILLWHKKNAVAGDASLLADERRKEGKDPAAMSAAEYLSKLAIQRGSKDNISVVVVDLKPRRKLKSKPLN
# [3] = biological target: T1, ABI2; assay: SPR, 3AESA immobilised on CM5 chip; format: binding; conditions: 3AESA amide-coupled to chip; 1 uM protein; competed by SA
# [4] = biological target: T2, ABI1; assay: SPR, 3AESA immobilised on CM5 chip; format: binding; conditions: 3AESA amide-coupled to chip; 1 uM protein; competed by SA
# [5] = biological target: T3, PP2C-D4 (Arabidopsis thaliana, UniProt Q94CL8); assay: SPR, 3AESA immobilised on CM5 chip; format: binding; conditions: 3AESA amide-coupled to chip; 1 uM protein; competed by SA
# T3 construct: gene PP2C6; ORF from Arabidopsis cDNA library in pET42a (NdeI/XhoI), His6-tagged, E. coli Rosetta 2 (DE3), Ni-NTA and gel filtration
# T3 sequence (Q94CL8 1-384): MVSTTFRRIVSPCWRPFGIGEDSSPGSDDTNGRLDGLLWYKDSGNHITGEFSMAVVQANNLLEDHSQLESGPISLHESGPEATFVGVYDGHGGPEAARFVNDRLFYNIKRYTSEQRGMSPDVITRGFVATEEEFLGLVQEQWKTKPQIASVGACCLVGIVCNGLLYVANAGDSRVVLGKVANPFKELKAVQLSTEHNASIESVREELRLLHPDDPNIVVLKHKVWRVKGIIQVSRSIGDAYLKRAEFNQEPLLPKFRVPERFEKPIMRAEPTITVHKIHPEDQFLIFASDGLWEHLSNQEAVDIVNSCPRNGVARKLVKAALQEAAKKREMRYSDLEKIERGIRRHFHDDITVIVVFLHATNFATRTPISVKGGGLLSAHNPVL
# [6] = biological target: T4, PYR1 with ABI1 (Arabidopsis thaliana, UniProt O49686); assay: SPR of ABI1 binding to immobilised PYR1, enhanced by ABA; conditions: indirect: ABA-enhanced receptor-PP2C interaction; HBS-EP buffer
# T4 construct: His-SUMO-tagged PYR1 immobilised on CM5 chip; His6-ABI1 as analyte; both from E. coli; with Protein phosphatase 2C 56
# T4 sequence (O49686 1-191): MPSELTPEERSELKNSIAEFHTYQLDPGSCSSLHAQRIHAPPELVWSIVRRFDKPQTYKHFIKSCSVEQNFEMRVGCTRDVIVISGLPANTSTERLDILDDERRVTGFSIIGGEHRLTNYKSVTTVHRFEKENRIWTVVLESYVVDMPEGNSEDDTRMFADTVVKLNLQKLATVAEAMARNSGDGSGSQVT
# T4 sequence (P49597 1-434 partner): T2 sequence (P49597 1-434)
# [7] = biological target: T5, PYL1 with ABI1 (Arabidopsis thaliana, UniProt Q8VZS8); assay: SPR of ABI1 binding to immobilised PYL1, enhanced by ABA; conditions: indirect: ABA-enhanced receptor-PP2C interaction; HBS-EP buffer
# T5 construct: His6-SUMO-tagged PYL1 immobilised on CM5 chip; His6-ABI1 as analyte; both from E. coli; with Protein phosphatase 2C 56
# T5 sequence (Q8VZS8 2-221): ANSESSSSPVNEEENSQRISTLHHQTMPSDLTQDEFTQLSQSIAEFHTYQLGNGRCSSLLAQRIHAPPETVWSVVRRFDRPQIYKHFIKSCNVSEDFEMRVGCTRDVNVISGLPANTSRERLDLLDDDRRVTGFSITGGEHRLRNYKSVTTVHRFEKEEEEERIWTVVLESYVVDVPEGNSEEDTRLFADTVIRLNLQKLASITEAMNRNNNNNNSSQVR
# T5 sequence (P49597 1-434 partner): T2 sequence (P49597 1-434)
# [8] = biological target: T6, PYL2 with ABI1 (Arabidopsis thaliana, UniProt O80992); assay: SPR of ABI1 binding to immobilised PYL2, enhanced by ABA; conditions: indirect: ABA-enhanced receptor-PP2C interaction; HBS-EP buffer
# T6 construct: His-SUMO-tagged PYL2 immobilised on CM5 chip; His6-ABI1 as analyte; both from E. coli; with Protein phosphatase 2C 56
# T6 sequence (O80992 1-190): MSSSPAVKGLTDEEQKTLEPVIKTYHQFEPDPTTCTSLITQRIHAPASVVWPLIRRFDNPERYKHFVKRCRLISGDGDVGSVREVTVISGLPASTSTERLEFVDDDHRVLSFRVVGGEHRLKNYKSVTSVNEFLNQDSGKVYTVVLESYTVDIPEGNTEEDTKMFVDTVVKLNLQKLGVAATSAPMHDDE
# T6 sequence (P49597 1-434 partner): T2 sequence (P49597 1-434)
# [9] = biological target: T3, PP2C-D4; assay: size-exclusion chromatography with [3H]SA; format: binding; conditions: 200 nM [3H]SA; 200 ng/ul protein; labelled compound
# [10] = biological target: T2, ABI1; assay: size-exclusion chromatography with [3H]SA; format: binding; conditions: 200 nM [3H]SA; 200 ng/ul protein; labelled compound
# [11] = biological target: T1, ABI2; assay: size-exclusion chromatography with [3H]SA; format: binding; conditions: 200 nM [3H]SA; 200 ng/ul protein; labelled compound
compound,measurement,setting,value
[N-]=[N+]=Nc1ccc(C(=O)O)c(O)c1 [4AzSA],"photoaffinity crosslinking, anti-SA immunoblot",[1],recombinant ABI1 and ABI2 bound the 3AESA‐immobilized sensor chip and crosslinked with 4AzSA
same,"photoaffinity crosslinking, anti-SA immunoblot",[2],recombinant ABI1 and ABI2 bound the 3AESA‐immobilized sensor chip and crosslinked with 4AzSA
NCCc1cccc(C(=O)O)c1O [3AESA],"SPR, 3AESA immobilised on CM5 chip",[3],recombinant ABI1 and ABI2 bound the 3AESA‐immobilized sensor chip and crosslinked with 4AzSA
same,"SPR, 3AESA immobilised on CM5 chip",[4],recombinant ABI1 and ABI2 bound the 3AESA‐immobilized sensor chip and crosslinked with 4AzSA
same,"SPR, 3AESA immobilised on CM5 chip",[5],Binding to 3AESA was detected when purified PP2C‐D4 was passed over the sensor chip
CC1=CC(=O)CC(C)(C)[C@@]1(O)/C=C/C(C)=C\C(=O)O [ABA],"SPR of ABI1 binding to immobilised PYR1, enhanced by ABA",[6],"dose‐dependent binding to the PP2Cs, which was further enhanced in the presence of ABA"
same,"SPR of ABI1 binding to immobilised PYL1, enhanced by ABA",[7],this binding was enhanced several fold in the presence of ABA
same,"SPR of ABI1 binding to immobilised PYL2, enhanced by ABA",[8],"dose‐dependent binding to the PP2Cs, which was further enhanced in the presence of ABA"
O=C(O)c1ccccc1O [SA],size-exclusion chromatography with [3H]SA,[9],PP2C‐D4's ability to bind SA also was confirmed by size‐exclusion chromatography using [^3H]SA
same,size-exclusion chromatography with [3H]SA,[10],ABI1 exhibited relatively weak binding to [^3H]SA
same,size-exclusion chromatography with [3H]SA,[11],ABI2's binding to [^3H]SA was comparable to that of PP2C‐D4
